Experimental data: patent US10131679B2, “Substituted dihydropyrrolopyrazole compound” (UBE INDUSTRIES, LTD., priority 2014, dated 2018)

What was measured:
[1] = test system: human large intestine cancer cell line (HCT-116); test: Human large intestine cancer (HCT-116) cell growth inhibition test; format: cell-based; settings: 72 h, HCT-116, culture for 3 days, sulforhodamine B absorbance
Method in brief: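 HCT-116 cells seeded at 1.0×10^3 cells/well in McCoy's 5a with 10% FBS, then exposed to compound (0.1% DMSO final) for 3 days. Growth measured by sulforhodamine B absorbance; IC50 derived from concentration-inhibition data.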

[2] = test system: IL-2 production in human peripheral blood mononuclear cell (PBMC); test: Human PBMC CD3/CD28-induced IL-2 production inhibition test; format: cell-based; settings: 48 h, CD3/CD28 stimulation, incubation for 2 days, ELISA
Source text: Human Peripheral Blood Mononuclear Cell (PBMC) CD3/CD28-Induced IL-2 Production Inhibition Test
PBMC was separated and collected by using Ficoll-Paque (17-1440-02 manufactured by GE Healthcare Japan Corp.) from blood collected from healthy human adult in the presence of heparin. RPMI1640 medium (manufactured by GIBCO/Thermo Fisher Scientific, Inc., REF. 11875) containing 10% FBS (manufactured by GIBCO/Thermo Fisher Scientific, Inc. REF. 10082) and containing a test compound dissolved in DMSO and 2 μg/mL anti-hCD28 (manufactured by R&D Systems, Inc., Cat. No. MAB342) was added at 100 μL/well to T cell Activation Plate Anti-Human CD3 96-well plate (manufactured by Corning Inc., REF. 354725), and subsequently, a PBMC suspension adjusted such that the number of cells was 2×10^6 cells/mL was added at 100 μL/well (final DMSO concentration: 0.1%). A RPMI1640 medium containing 10% FBS and containing 0.1% DMSO and 2 μg/mL anti-hCD28 was similarly added to wells not supplemented with the test compound. After incubation for 2 days in a carbon dioxide incubator, the culture supernatant was collected. The collected culture supernatant was stored at −20° C. until IL-2 content measurement.
In the measurement of IL-2 content in the culture supernatant, a sandwich ELISA kit Quantikine Human IL-2 (manufactured by R&D Systems, Inc., Cat. No. S2050) was used. The IL-2 content of each sample was calculated from the calibration curve of Standard IL-2 included in the kit. When the amount of IL-2 produced by CD3/CD28 stimulation in the case of the addition of only DMSO was defined as 100%, the rate of inhibition of IL-2 production at each concentration of the test compound was calculated. A test compound concentration inhibiting 50% of IL-2 production was calculated as an IC50 value (nM) from the concentration of the added test compound and the rate of inhibition of IL-2 production by the test compound by using EXSUS (version 8.0.0 or version 8.0.1, manufactured by CAC Exicare Corp.).

[3] = test system: Human keratinocytes (NHEK-Neo Pooled); test: Human keratinocyte growth inhibition assay; format: cell-based; settings: 48 h, culture for 2 days, Cell Counting Kit-8
Description: Human Keratinocyte Growth Inhibition Assay
The measurement of a human keratinocyte growth inhibitory effect was carried out by modifying the method of Schafer et al. (British Journal of Pharmacology, 159, 842 (2011)).
Human keratinocytes (NHEK-Neo Pooled, manufactured by Lonza Group AG, Cat. No. 00192906) were cultured in KGM-Gold Bullet Kit (manufactured by Lonza Group AG, Cat. No. 00192060) and inoculated at 2.0×10^3 cells/well to a 96-well plate. After overnight culture in a carbon dioxide incubator, a test compound dissolved in DMSO (final DMSO concentration: 0.1%) was added and left standing in a carbon dioxide incubator. After culture for 2 days, the absorbance thereof was measured by using Cell Counting Kit-8 (343-07623 manufactured by Dojindo Laboratories)).
The rate of inhibition of cell growth at each concentration was calculated from the test compound concentration and the absorbance of Cell Counting Kit-8, and the concentration of the test compound necessary for inhibiting 50% of cell growth (IC50 value) was calculated by using EXSUS (version 8.0.0 or version 8.0.1, manufactured by CAC Exicare Corp.).

[4] = test system: IL-6 production in rat adjuvant arthritis model; test: IL-6 production inhibition test in rat adjuvant arthritis model; format: in vivo, LEW rats; settings: single dose, administration of 10 mg/kg, left ankle, read-out: rate of inhibition of IL-6 production
Description: IL-6 Production Inhibition Test in Rat Adjuvant Arthritis Model
A single-dose drug efficacy test using rat adjuvant arthritis models was carried out by modifying the method of Magari. K et al. (J. Rheumatol. 30 (10), 2193 (2003)).
LEW rats (female, supplied by Charles River Laboratories Japan, Inc.) were used as laboratory animals. An adjuvant prepared from heat-killed bacteria of Mycobacterium butyricum (264010 manufactured by Difco Laboratories Ltd.) and liquid paraffin (manufactured by Wako Pure Chemical Industries, Ltd., Code No. 128-04375) was subcutaneously administered as a phlogogenic material to the right hind leg footpads of the rats under inhalation anesthesia with isoflurane (manufactured by Wako Pure Chemical Industries, Ltd., Code No. 099-06571) to prepare arthritis models. Approximately 2 weeks later, left paw edema was measured with a paw volume meter (model TK-101CMP manufactured by Unicorn Co., Ltd.), and grouping was performed such that the average volume of left paw edema was equal among groups. A test compound or only a solvent was administered, after a certain time, they were sacrificed by exsanguination from the abdomens under isoflurane anesthesia, and the left ankles were collected, chopped, and frozen by using liquid nitrogen. The collected left ankle portions were disrupted in CRYOPress (model CP-100WP manufactured by Microtec Co., Ltd.), then supplemented with a buffer solution, shaken overnight at 4° C., and then centrifuged to collected a supernatant. The preparation of the buffer solution was performed by mixing a Tris buffer solution (pH 7.4), sodium chloride (NaCl), phenyl methyl sulfonyl fluoride (PMSF), Triton X-100, EDTA-free complete tablets (manufactured by F. Hoffmann-La Roche, Ltd., REF. 11 873 580 001), and Otsuka distilled water (manufactured by Otsuka Pharmaceutical Co., Ltd., product No. 1323). IL-6 in the collected supernatant was measured by using a sandwich ELISA kit (manufactured by R&D Systems, Inc., Catalog No. S6050).
The IL-6 content of each sample was calculated from the calibration curve of Standard IL-6 included in the kit. When the amount of IL-6 produced in the solvent administration control group was defined as 100%, the rate of inhibition of IL-6 production (%) at each dose of the test compound was calculated.

CDK7 = molecular target: T1, CDK7 (Homo sapiens, UniProt P50613); test: CDK7 enzyme inhibition test; format: biochemical; settings: Ki=IC50/(1+S/Km); 33P bound to MBP, [γ-33P]ATP, 30° C. for 20 minutes; read-out: Ki value of CDK7 inhibitory activity
T1 construct: purchased Carna Biosciences, Inc. 04-108
T1 sequence (P50613 whole entry): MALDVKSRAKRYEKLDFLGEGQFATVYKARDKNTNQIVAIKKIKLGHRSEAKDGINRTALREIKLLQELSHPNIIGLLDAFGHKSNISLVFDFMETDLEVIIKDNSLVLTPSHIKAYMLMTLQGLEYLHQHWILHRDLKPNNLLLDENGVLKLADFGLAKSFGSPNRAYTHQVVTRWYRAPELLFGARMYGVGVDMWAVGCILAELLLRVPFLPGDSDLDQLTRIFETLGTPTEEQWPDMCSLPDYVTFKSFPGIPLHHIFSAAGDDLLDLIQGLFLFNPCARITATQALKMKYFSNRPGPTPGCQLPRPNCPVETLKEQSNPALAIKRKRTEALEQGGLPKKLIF
T1 sequence (P51946 whole entry partner): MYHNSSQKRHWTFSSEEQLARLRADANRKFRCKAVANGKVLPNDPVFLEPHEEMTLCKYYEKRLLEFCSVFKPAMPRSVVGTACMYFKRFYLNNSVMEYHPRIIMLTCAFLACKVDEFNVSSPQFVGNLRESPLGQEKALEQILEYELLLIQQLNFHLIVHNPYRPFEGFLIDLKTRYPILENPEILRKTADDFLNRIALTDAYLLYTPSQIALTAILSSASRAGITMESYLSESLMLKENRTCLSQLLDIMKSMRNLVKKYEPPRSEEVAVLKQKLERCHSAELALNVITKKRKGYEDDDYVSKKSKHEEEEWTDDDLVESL
T1 sequence (P51948 whole entry partner): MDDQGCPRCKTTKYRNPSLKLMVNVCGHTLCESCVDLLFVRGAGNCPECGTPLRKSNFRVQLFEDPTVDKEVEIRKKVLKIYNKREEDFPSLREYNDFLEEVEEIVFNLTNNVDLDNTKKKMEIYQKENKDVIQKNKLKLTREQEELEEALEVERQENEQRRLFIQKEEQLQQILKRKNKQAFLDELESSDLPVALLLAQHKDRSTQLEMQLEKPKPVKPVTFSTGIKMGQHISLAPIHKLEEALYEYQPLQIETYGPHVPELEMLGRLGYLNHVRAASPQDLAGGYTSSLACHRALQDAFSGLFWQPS
Method in brief: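 Recombinant CDK7 with MBP substrate and [γ-33P]ATP (500 μM solution, diluted into the mix) in HEPES pH 7.4/DTT/Triton X-100/MgCl2, 20 min at 30 °C. TCA-precipitated 33P-MBP counted by scintillation; IC50 from inhibition, Ki = IC50/(1+S/Km).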

[5] = test system: mouse imiquimod-induced psoriasis model; test: Ear thickening suppression test using mouse imiquimod-induced psoriasis model; format: in vivo; settings: topical, 120 h, application of a 0.01% methanol solution for 4 days, thickness measured on day 5, BALB/c mice, read-out: rate of inhibition of increase in right auricle thickness
Description: Ear Thickening Suppression Test Using Mouse Imiquimod-Induced Psoriasis Model
An imiquimod-induced psoriasis model test was carried out by modifying the method of Leslie van der Fits et al. (J. Immunol. 182, 5836 (2009)). BALB/c mice were used (female, supplied by Charles River Laboratories Japan, Inc.) as laboratory animals. On the start day of the test, the thicknesses of the right auricles of the mice were measured with a thickness gauge (model SMD-565J manufactured by TECLOCK Corp.). A test compound solution or only a solvent was applied or orally administered, and after 60 minutes, 5 mg of imiquimod (Beselna Cream 5% manufactured by Mochida Pharmaceutical Co., Ltd.) was applied to the insides of the right auricles. The test compound solution or solvent administration and the imiquimod application were carried out for 4 days, and the thicknesses of the right auricles were measured again on day 5. When increase in the thicknesses of the right auricles of the solvent-administered group on day 5 was defined as 100%, the rate of inhibition of increase (%) at each dose of the test compound was calculated.

Row | Structure (SMILES) | IC50 [1] [nM] | IC50 [2] [nM] | IC50 [3] [nM] | inhibition in vivo at 10 mg/kg [4] [%] | Ki (CDK7) [nM] | inhibition in vivo at 0.01 % [5] [%]
1 | COCC[C@@H](NC(=O)N1Cc2c(NC(=O)C3([Si](C)(C)C)CCC3)n[nH]c2C1(C)C)c1ccccc1 [IV-235, (R)—N-(3-Methoxy-1-phenylpropyl)-6,6-dimethyl-3-[1-(trimethylsilyl)cyclobutanecarboxamido]-4,6-dihydropyrrolo[3,4-c]pyrazole-5(1H)-carboxamide] | ≤ 500 | ≤ 50 | ≤ 500 | ≥ 50 | – | –
2 | CC1(C)c2[nH]nc(NC(=O)C3([Si](C)(C)C)CCC3)c2CN1C(=O)N[C@H](COC(F)F)c1ccccc1 [IV-131, (S)—N-[2-(Difluoromethoxy)-1-phenylethyl]-6,6-dimethyl-3-[1-(trimethylsilyl)cyclobutanecarboxamido]-4,6-dihydropyrrolo[3,4-c]pyrazole-5(1H)-carboxamide] | ≤ 500 | – | ≤ 500 | – | – | –
3 | CC(OC1CCCCC1)C(=O)N1Cc2c(NC(=O)C3([Si](C)(C)C)CCC3)n[nH]c2C1(C)C (centres unmarked) [IV-1255, N-{5-[2-(Cyclohexyloxy)propanoyl]-6,6-dimethyl-1,4,5,6-tetrahydropyrrolo[3,4-c]pyrazol-3-yl}-1-(trimethylsilyl)cyclobutanecarboxamide] | ≤ 500 | ≤ 50 | – | – | ≤ 50 | –
4 | CC1(C)c2[nH]nc(NC(=O)C3([Si](C)(C)C)CCC3)c2CN1C(=O)N[C@H](CO)c1ccc(F)cc1 [IV-527, (S)—N-[1-(4-Fluorophenyl)-2-hydroxyethyl]-6,6-dimethyl-3-[1-(trimethylsilyl)cyclobutanecarboxamido]-4,6-dihydropyrrolo[3,4-c]pyrazole-5(1H)-carboxamide] | ≤ 500 | ≤ 50 | ≤ 500 | – | ≤ 50 | –
5 | CC(C)(O)[C@@H](NC(=O)N1Cc2c(NC(=O)C3([Si](C)(C)C)CC3)n[nH]c2C1(C)C)c1ccccc1 [III-170, (S)—N-(2-Hydroxy-2-methyl-1-phenylpropyl)-6,6-dimethyl-3-[1-(trimethylsilyl)cyclopropanecarboxamido]-4,6-dihydropyrrolo[3,4-c]pyrazole-5(1H)-carboxamide] | ≤ 500 | ≤ 50 | ≤ 500 | – | ≤ 50 | –
6 | CC1(C)c2[nH]nc(NC(=O)C3([Si](C)(C)C)CC3)c2CN1C(=O)N[C@H](CCO)c1ccccc1 [III-226, (R)—N-(3-Hydroxy-1-phenylpropyl)-6,6-dimethyl-3-[1-(trimethylsilyl)cyclopropanecarboxamido]-4,6-dihydropyrrolo[3,4-c]pyrazole-5(1H)-carboxamide] | ≤ 500 | ≤ 50 | ≤ 500 | – | ≤ 50 | –
7 | CC1(C)c2[nH]nc(NC(=O)C3([Si](C)(C)C)CCC3)c2CN1C(=O)NC(CO)c1ccccc1F (centres unmarked) [IV-510, N-[1-(2-Fluorophenyl)-2-hydroxyethyl]-6,6-dimethyl-3-[1-(trimethylsilyl)cyclobutanecarboxamido]-4,6-dihydropyrrolo[3,4-c]pyrazole-5(1H)-carboxamide] | ≤ 500 | ≤ 50 | – | – | ≤ 50 | –
8 | CO[C@@H](C(=O)N1Cc2c(NC(=O)C3([Si](C)(C)C)CC3)n[nH]c2C1(C)C)c1ccccc1 [III-1059, (R)—N-[5-(2-Methoxy-2-phenylacetyl)-6,6-dimethyl-1,4,5,6-tetrahydropyrrolo[3,4-c]pyrazol-3-yl]-1-(trimethylsilyl)cyclopropanecarboxamide] | ≤ 500 | – | ≤ 500 | – | ≤ 50 | ≥ 50
9 | CC1(C)c2[nH]nc(NC(=O)C3([Si](C)(C)C)CCC3)c2CN1C(=O)N[C@H](CO)c1cccc(F)c1 [IV-519, (S)—N-[1-(3-Fluorophenyl)-2-hydroxyethyl]-6,6-dimethyl-3-[1-(trimethylsilyl)cyclobutanecarboxamido]-4,6-dihydropyrrolo[3,4-c]pyrazole-5(1H)-carboxamide] | ≤ 500 | ≤ 50 | ≤ 500 | – | ≤ 50 | –
10 | CC1(C)c2[nH]nc(NC(=O)C3([Si](C)(C)C)CCC3)c2CN1C(=O)NC(C#CCO)c1ccccc1 (racemic) [IV-378, N-(4-Hydroxy-1-phenyl-2-butyn-1-yl)-6,6-dimethyl-3-[1-(trimethylsilyl)cyclobutanecarboxamido]-4,6-dihydropyrrolo[3,4-c]pyrazole-5(1H)-carboxamide] | ≤ 500 | – | ≤ 500 | – | ≤ 50 | –
